US8475940B2, “Anthracene derivative and light-emitting device” (Toppan Printing Co., Ltd., priority 2009, dated 2013)
Where “and” joins values, the source holds several entries; their conditions need not be identical. Equal values may be shown once.

Experiments:
[1] = Fluorescent spectrum of spin coat film (fluorophotometer RF-5300PC); type: physicochemical; settings: for fluorescent peak wavelength: single-compound spin coat film on ITO transparent electroconductive glass, excitation 330-340 nm
Method: The fluorescent spectrum of a spin coat film of the compound 31 on an ITO transparent electroconductive glass was measured. The results correspond to a graph (0 wt %) of FIG. 8. The measurement was made by a fluorophotometer (trade name: RF-5300PC, manufactured by Shimadzu Corporation). The compound 31 emitted blue light having a fluorescent peak wavelength of 422 nm.
First, a fluorescent spectrum obtained when a film formed in a thickness of 41 nm by applying a solution of the compound 32 to the surface of an ITO transparent electroconductive glass by spin coating was excited by 340 nm light was obtained (solid line in FIG. 10). The measurement was made by a fluorophotometer (trade name: RF-5300PC, manufactured by Shimadzu Corporation). Blue light emission having a fluorescent peak wavelength of 424 nm was obtained.
A fluorescent spectrum obtained when a film was formed in the same manner as above by doping the compound 32 with 5 wt % of the compound 2 was measured in the same manner as above. The results are shown by the dotted line in FIG. 10. The fluorescent peak wavelength was 453 nm and pure blue light emission was obtained which was more intensified than the case where the compound 32 was not doped with the compound 2.
Xylene solutions containing only the compound 31, only the compound 33, and a mixture of the compound 31:compound 33:compound 3 (10:2:1 ratio by weight) such that each solid content was 2 wt % were respectively applied to a quarts plate by spin coating (rotated at 500 rpm for 5 sec and then at 1200 rpm for 60 sec) to form films having almost the same thickness, thereby measuring a fluorescent spectrum.

[2] = Thermal analysis by DSC (glass transition temperature); type: physicochemical; settings: for thermal stability: second heatup after rapid cooling, no exothermic or endothermic peak except Tg
Method: The glass transition temperature (Tg), crystallization temperature (Tc), and melting point (Tm) of the compound 1 were measured by EXSTAR6000 Series DSC6200 manufactured by Seiko Instruments Inc., at a temperature rise rate of 20° C./min. […] Tm was 493° C. to 513° C. (peak 504° C.).
The glass transition temperature (Tg), crystallization temperature (Tc), and melting point (Tm) of the isomer component 1 of the compound 2 were measured by an EXSTAR6000Series DSC6200 manufactured by Seiko Instruments Inc., at a temperature rise rate of 20° C./min.
The Tg, Tc, and Tm of the compound 33 measured by DSC were 240° C., 323° C., and 403° C. respectively.

[3] = Solubility in toluene / organic solvents at ambient temperature; type: physicochemical; settings: for solubility (concentration dissolved in toluene): ambient temperature; for solubility in organic solvents: aromatic solvents such as xylene, anisole, tetralin
Method: The compound 1 was dissolved with a concentration of 1.3 mg in 1 ml of toluene at ambient temperature and used as a light-emitting dopant for a blue light-emitting layer ink, which could be applied to form a film.
The isomer component 1 of compound 2 was dissolved in a concentration of 34 mg in 1 ml of toluene at ambient temperature and used for ink that formed each layer of an organic EL as a carrier transport layer, each color light-emitting host and light-emitting dopant, thereby enabling the formation of a coating film.
The compound 3 was dissolved in a concentration of 150 mg in 1 ml of toluene at ambient temperature and used for ink that formed each layer of an organic EL as a carrier transport layer, each color light-emitting host, or blue light-emitting dopant, thereby enabling the formation of a coating film.
Further, the compound 31 can be dissolved in various mixture solvents to be matched with the viscosities of various printing systems.
The compound 32 was soluble in a concentration of 6 mg in 1 ml of toluene at ambient temperature. When the compound 32 was gradually added to dissolve while heating on a hot plate, 34 mg of the compound 32 was dissolved when the temperature was returned to ambient temperature. The compound 32 can be used as an electron transportable carrier transport material and may be dissolved in an organic solvent such as toluene, xylene, anisole, and tetralin to add the obtained solution to ink for forming each layer of an organic EL, thereby forming a coating film.

[4] = Energy level: ionization potential of spin coat film by surface analyzer AC-1, electron affinity by subtracting absorption-edge energy; type: physicochemical; settings: for electron affinity: ionization potential minus absorption-edge energy; for ionization potential: spin coat film on ITO glass, surface analyzer AC-1; for Eg: energy difference between ionization potential and electron affinity
Method: (§1) A solution prepared by dissolving 1.3 mg of the compound 1 in 1 ml of toluene was applied to an ITO transparent electroconductive glass by spin coating to measure the ionization potential by a surface analyzer AC-1 manufactured by Riken Keiki Co., Ltd., to find that the ionization potential was 5.9 eV.
A solution prepared by dissolving 10 mg of the isomer component 1 of the compound 2 in 1 ml of toluene was applied to an ITO transparent electroconductive glass by spin coating to measure the ionization potential by a surface analyzer AC-1 manufactured by Riken Keiki Co., Ltd., to find that the ionization potential was 5.9 eV.
as §1, with “10” for “1.3”, “eV. The electron affinity obtained by subtracting the absorption-edge energy from the ionization potential was 3.0 eV.” for “eV.”
as §1, with “dissolving 10” for “dissolving 1.3”, “compound 31” for “compound 1”, “was 6.2” for “was 5.9”, “eV. The electron affinity obtained by subtracting absorption-edge energy from the ionization potential was 3.0 eV.” for “eV.”
as §1, with “dissolving 10” for “dissolving 1.3”, “compound 32” for “compound 1”, “was 6.2” for “was 5.9”, “eV. The electron affinity obtained by subtracting absorption-edge energy from the ionization potential was 3.0 eV.” for “eV.”

[5] = Optical deterioration of fluorescent intensity of film under 340 nm irradiation; type: physicochemical; settings: irradiated with 340 nm light for 1,000 sec, slit 1.5 nm
Method: A film of the ink was formed on an ITO transparent electroconductive glass by spin coating and the fluorescent spectrum intensity was measured by a fluorophotometer (trade name: RF-5300PC, manufactured by Shimadzu Corporation) at an excitation spectrum of 340 nm.
Using a fluorophotometer (trade name: RF-5300PC, manufactured by Shimadzu Corporation) wherein the width of the slit for excitation light was changed to 1.5 nm, this light emitting film was successively irradiated with light having a wavelength of 340 nm for 1,000 sec, with the result that a single film of the isomer component 1 of the compound 2 was decreased in fluorescent intensity to 57% of the initial intensity and the single film of BTrSBF was decreased to 64% of the initial intensity whereas the film obtained by doping BTrSBF with 5 wt % of the compound 2 kept 74% of the initial intensity, showing that this film had the effect of suppressing the optical deterioration of fluorescent intensity.

[6] = background section, DSC; cited from earlier work

| Structure (SMILES) | fluorescent peak wavelength [1] [nm] | thermal stability [2] | solubility (concentration dissolved in toluene) ([3]; toluene) | electron affinity [4] | ionization potential [4] [eV] | further results |
| --- | --- | --- | --- | --- | --- | --- |
| CC(C)(C)c1ccc2c(c1)c1cc(C(C)(C)C)ccc1n2-c1ccc(-c2cc(-c3ccc(-n4c5ccc(C(C)(C)C)cc5c5cc(C(C)(C)C)ccc54)cc3)cc(-c3ccc(-n4c5ccc(C(C)(C)C)cc5c5cc(C(C)(C)C)ccc54)cc3)c2)cc1 [compound 33, 1,3,5-tris(4-(3,6-di-tert-butyl-N-carbazolyl)phenyl)benzene] |  |  |  | 2.8 eV | 6.2 | fluorescent peak ([1]; spin coat film from xylene solution on quartz plate): 380 nm; glass transition temperature (Tg) ([2]; DSC, temperature rise rate 20° C./min): 240 °C; solubility in organic solvents ([3]; toluene): easily soluble; amount dissolved in general organic solvent ([3]; toluene, xylene, tetralin or mixture solvent): ≥ 10 wt % |
| Cc1ccc2c(-c3ccccc3-c3ccc(-c4nc(-c5ccc(C(C)(C)C)cc5)nc(-c5ccc(C(C)(C)C)cc5)n4)cc3)c3ccccc3c(-c3ccccc3-c3ccc(-c4nc(-c5ccc(C(C)(C)C)cc5)nc(-c5ccc(C(C)(C)C)cc5)n4)cc3)c2c1 (single isomer, unassigned) [isomer component 1 of the compound 2, 2-methyl-9,10-bis{4-[2,4-bis(4-tert-butylphenyl)-1,3,5-triazine-6-yl]biphenyl-2′-yl}-anthracene] |  | thermally very stable | 34 mg in 1 ml | 2.9 eV | 5.9 | fluorescent intensity remaining [5]: 57 % of the initial intensity |
| CC(C)(C)c1ccc2c(-c3ccc4ccccc4c3)c3ccccc3c(-c3ccc4ccccc4c3)c2c1 [TBDNA, 9,10-di(2-naphthyl)-2-tertiarybutylanthracene] |  |  |  |  |  | glass transition temperature (Tg) of prior-art material [6]: about 128 °C |
| CC(C)(C)c1ccc2c(-c3ccccc3-c3ccccc3)c3ccccc3c(-c3ccccc3-c3ccccc3)c2c1 [TBBPA, 9,10-di(biphenyl-2-yl)-2-t-butylanthracene] |  |  |  |  |  | glass transition temperature (Tg) of prior-art material [6]: about 74 °C |
| Cc1ccc2c(-c3ccccc3-c3ccc(-c4nc(-c5ccc(C(C)(C)C)cc5)nc(-c5ccc(C(C)(C)C)cc5)n4)cc3)c3ccccc3c(-c3ccccc3-c3ccc(-c4nc(-c5ccc(C(C)(C)C)cc5)nc(-c5ccc(C(C)(C)C)cc5)n4)cc3)c2c1 [compound 2, 2-methyl-9,10-bis{4-[2,4-bis(4-tert-butylphenyl)-1,3,5-triazine-6-yl]biphenyl-2′-yl}anthracene] | 454 |  |  |  |  | Eg [4]: about 2.9 eV |

Now from value to compound, other results behind:

| fluorescent peak wavelength [1] [nm] | thermal stability [2] | solubility (concentration dissolved in toluene) ([3]; toluene) | electron affinity [4] | ionization potential [4] [eV] | Structure (SMILES) | further results |
| --- | --- | --- | --- | --- | --- | --- |
| 453 | thermally very stable | 150 mg in 1 ml |  |  | CC(C)(C)c1ccc(-c2nc(-c3ccc(-c4ccccc4-c4c5ccccc5c(-c5ccccc5-c5ccc(-c6nc(-c7ccc(C(C)(C)C)cc7)nc(-c7ccc(C(C)(C)C)cc7)n6)cc5)c5cc(C(C)(C)C)ccc45)cc3)nc(-c3ccc(C(C)(C)C)cc3)n2)cc1 [compound 3, 2-tert-butyl-9,10-bis{4-[2,4-bis(4-tert-butylphenyl)-1,3,5-triazine-6-yl]biphenyl-2′-yl}anthracene] |  |
| 424 |  | 6 mg in 1 ml | 3.0 eV | 6.2 | Cc1ccc(-c2nc(-c3ccc(C)cc3)nc(-c3ccc(-c4ccc5c(c4)C4(c6ccccc6-5)c5ccccc5-c5ccc(-c6ccc(-c7nc(-c8ccc(C)cc8)nc(-c8ccc(C)cc8)n7)cc6)cc54)cc3)n2)cc1 [compound 32] | amount dissolved after heating on a hot plate and return to ambient temperature ([3]; 1 ml of toluene, gradually added while heating, returned to ambient temperature): 34 mg |
| 422 | thermally stable glass-like material | 0.4 g in 1 ml | 3.0 eV | 6.2 | CC(C)(C)c1ccc(-c2nc(-c3ccc(-c4ccc5c(c4)C4(c6ccccc6-5)c5ccccc5-c5ccc(-c6ccc(-c7nc(-c8ccc(C(C)(C)C)cc8)nc(-c8ccc(C(C)(C)C)cc8)n7)cc6)cc54)cc3)nc(-c3ccc(C(C)(C)C)cc3)n2)cc1 [compound 31, 2,2′-bis(4-(2,4-bis(4-tert-butylphenyl)-1,3,5-triazine-6-yl)phenyl)-9,9′-spirobifluorene] | Eg [4]: 3.2 eV; fluorescent intensity remaining [5]: 64 % of the initial intensity; solubility in organic solvents ([3]; toluene): easily soluble |
| 448 |  | 1.3 mg in 1 ml | 2.9 eV and 3.0 eV | 5.9 | CC(C)(C)c1ccc(-c2nc(-c3ccc(-c4ccccc4-c4c5ccccc5c(-c5ccccc5-c5ccc(-c6nc(-c7ccc(C(C)(C)C)cc7)nc(-c7ccc(C(C)(C)C)cc7)n6)cc5)c5ccccc45)cc3)nc(-c3ccc(C(C)(C)C)cc3)n2)cc1 [compound 1, 9,10-bis{4-[2,4-bis(4-tert-butylphenyl)-1,3,5-triazine-6-yl]biphenyl-2′-yl}anthracene] |  |
